Measurements: paper PMC7321065, “Discovery of New Schiff Bases Tethered Pyrazole Moiety: Design, Synthesis, Biological Evaluation, and Molecular Docking Study as Dual Targeting DHFR/DNA Gyrase Inhibitors with Immunomodulatory Activity” (Molecules, 2020)
In brackets after ≈: the same amount, converted by molar mass. Read-outs that look alike come from different tables or passages of the source.

Key:
Fusarium oxysporum [1] = assay: Inhibition zone, agar plate diffusion; assay type: cell-based; settings: Fo, mm ± standard deviation, sample at 0.5 mg/mL, read-out: Inhibition zone (IZ)
Outline: (§1)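 Compounds in DMSO, with DMSO as negative control, were tested at 0.5 mg/mL in agar wells cut 10 mm wide.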

Candida albicans [2] = assay: Inhibition zone, agar plate diffusion; assay type: cell-based; settings: Ca, mm ± standard deviation, sample at 0.5 mg/mL, read-out: Inhibition zone (IZ)
Outline: as §1

Salmonella typhi = assay: Inhibition zone, agar plate diffusion; assay type: cell-based; settings: Salmonella enterica, St, mm ± standard deviation, sample at 0.5 mg/mL, read-out: Inhibition zone (IZ)
Outline: as §1

Staphylococcus aureus = assay: Inhibition zone, agar plate diffusion; assay type: cell-based; settings: Sa, mm ± standard deviation, sample at 0.5 mg/mL, read-out: Inhibition zone (IZ)
Outline: as §1

Vero cells (ATCC CCL-81) = assay: Cytotoxicity on normal cells, MTT assay; assay type: cell-based, African green monkey; settings: MTT, healthy non-cancer cells, read-out: IC50 Vero
Protocol: 3-[4, 5-Dimethyl-2-thiazolyl)-2, 5-diphenyl-2 H-tetrazolium bromide (MTT) protocol is based on the cleavage of the tetrazolium salt by mitochondrial dehydrogenases in viable cells. Cells were dispensed in a 96 well sterile microplate (5 x 10^4 cells/well), and incubated at 37 °C with series of different concentrations, in DMSO, of each tested compound or Doxorubicin ® (positive control) for 48 h in a serum free medium prior to the MTT assay. After incubation, media were carefully removed, 40 µL of MTT (2.5 mg/mL) were added to each well and then incubated for an additional 4 h. The purple formazan dye crystals were solubilized by the addition of 200 µL of DMSO. The absorbance was measured at 590 nm using a SpectraMax® Paradigm® Multi-Mode microplate reader. The relative cell viability was expressed as the mean percentage of viable cells compared to the untreated control cells.
All experiments were conducted in triplicate and repeated in three different days. All the values were represented as mean ± SD. IC 50s were determined by probit analysis using SPSS software program (SPSS

S. aureus DNA Gyrase = S. aureus DNA Gyrase (Staphylococcus aureus, UniProt P0A0K8+P20831); assay: DNA gyrase enzyme assay; assay type: biochemical; settings: Mean ± SEM
S. aureus DNA Gyrase, sequence (P20831 whole entry, the tested form may be a part): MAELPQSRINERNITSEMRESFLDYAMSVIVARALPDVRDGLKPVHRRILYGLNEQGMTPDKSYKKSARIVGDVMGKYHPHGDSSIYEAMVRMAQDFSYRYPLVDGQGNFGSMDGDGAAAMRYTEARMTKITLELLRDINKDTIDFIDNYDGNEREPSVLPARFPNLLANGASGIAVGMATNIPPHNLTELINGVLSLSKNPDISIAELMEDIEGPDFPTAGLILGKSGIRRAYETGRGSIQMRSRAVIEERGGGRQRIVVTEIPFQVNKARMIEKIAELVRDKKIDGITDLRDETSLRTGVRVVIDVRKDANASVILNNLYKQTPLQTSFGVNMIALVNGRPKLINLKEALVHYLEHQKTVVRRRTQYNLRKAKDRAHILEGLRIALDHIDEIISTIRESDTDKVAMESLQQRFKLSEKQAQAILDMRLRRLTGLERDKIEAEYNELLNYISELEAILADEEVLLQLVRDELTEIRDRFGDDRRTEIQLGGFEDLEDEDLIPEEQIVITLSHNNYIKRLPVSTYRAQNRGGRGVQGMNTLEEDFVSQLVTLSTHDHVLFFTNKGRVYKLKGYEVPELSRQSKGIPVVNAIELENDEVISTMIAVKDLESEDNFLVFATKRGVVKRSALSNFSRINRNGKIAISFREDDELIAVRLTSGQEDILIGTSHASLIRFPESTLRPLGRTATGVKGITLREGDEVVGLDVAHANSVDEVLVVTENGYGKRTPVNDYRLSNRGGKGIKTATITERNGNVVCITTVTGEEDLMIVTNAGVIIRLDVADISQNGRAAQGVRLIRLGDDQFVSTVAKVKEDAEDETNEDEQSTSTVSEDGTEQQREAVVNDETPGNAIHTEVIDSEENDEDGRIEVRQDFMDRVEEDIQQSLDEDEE
S. aureus DNA Gyrase, sequence (P0A0K8 whole entry, the tested form may be a part): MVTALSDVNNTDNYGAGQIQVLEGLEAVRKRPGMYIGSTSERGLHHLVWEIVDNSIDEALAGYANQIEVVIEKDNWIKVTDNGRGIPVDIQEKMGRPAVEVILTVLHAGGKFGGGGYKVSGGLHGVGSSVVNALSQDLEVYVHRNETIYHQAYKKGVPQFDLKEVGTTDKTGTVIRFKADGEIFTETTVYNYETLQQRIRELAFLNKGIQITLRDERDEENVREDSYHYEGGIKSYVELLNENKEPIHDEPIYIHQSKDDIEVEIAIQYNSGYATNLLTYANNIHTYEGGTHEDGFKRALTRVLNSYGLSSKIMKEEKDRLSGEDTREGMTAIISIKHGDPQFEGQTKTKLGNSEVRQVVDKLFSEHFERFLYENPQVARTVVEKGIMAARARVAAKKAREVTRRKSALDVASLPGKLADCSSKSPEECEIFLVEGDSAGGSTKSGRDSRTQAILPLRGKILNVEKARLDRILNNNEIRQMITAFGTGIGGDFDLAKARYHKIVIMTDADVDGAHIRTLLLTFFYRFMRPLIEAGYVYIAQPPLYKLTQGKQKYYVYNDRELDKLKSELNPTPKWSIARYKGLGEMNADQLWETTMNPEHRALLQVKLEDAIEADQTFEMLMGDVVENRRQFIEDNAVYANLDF

[3] = test system: P. aeruginosa ATCC BAA-2111; assay: MIC/MBC against MDRB, paper disk diffusion; assay type: cell-based; settings: Pseudomonas aeruginosa, ATCCBAA2111, P. aeruginosa ATCC BAA-2111; for MBC: read-out: MBC; for MIC: read-out: MIC
Description: The inhibition zone (IZ, mm±standard deviation) of pyrazole Schiff bases ( 6b, 7b, 7c, 8a, 8d and 9b) was
measurement according to the agar plate diffusion method against a panel of multidrug-resistant bacteria
(MDRB). […]

[4] = test system: S. aureus ATCC 43300 (MRSA); assay: Inhibition zone against MDRB, agar plate diffusion; assay type: cell-based
[5] = test system: mammary gland breast cancer cell line (MCF-7); assay: Antiproliferative activity, MTT assay; assay type: cell-based, human; settings: for IC50: Homo sapiens, MCF7, MTT, 48 h, read-out: IC50 MCF-7; for Fold relative to doxorubicin (IC50): MCF-7
Outline: (§2)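 MTT added for 4 h, formazan dissolved in DMSO, absorbance at 590 nm. Viability relative to untreated cells; IC50 by probit analysis.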

[6] = test system: hepatocellular carcinoma cell line (HepG2); assay: Antiproliferative activity, MTT assay; assay type: cell-based, human; settings: Homo sapiens, HepG2; MTT, 48 h; read-out: IC50 HepG-2
Outline: as §2

Fusarium oxysporum [7] = assay: MIC/MFC, paper disk diffusion; assay type: cell-based; settings: F. oxysporum; for MFC / MIC: Fusarium oxysporum; for MFC: read-out: MFC; for MIC: read-out: MIC
Outline: (§3)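 MIC and MBC were obtained by paper disk diffusion, bacteria grown on nutrient agar and fungi/yeast on Sabouraud agar. MIC is the lowest concentration inhibiting growth.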

Candida albicans [8] = assay: MIC/MFC, paper disk diffusion; assay type: cell-based; settings: for MIC / MFC: Candida albicans; for MFC: read-out: MFC
Outline: as §3

[9] = test system: P. aeruginosa ATCC BAA-2111; assay: Inhibition zone against MDRB, agar plate diffusion; assay type: cell-based
Bacillus subtilis = assay: Inhibition zone, agar plate diffusion; assay type: cell-based; settings: Bs, mm ± standard deviation, sample at 0.5 mg/mL, read-out: Inhibition zone (IZ)
Outline: as §1

Enterococcus faecalis = assay: Inhibition zone, agar plate diffusion; assay type: cell-based; settings: Ef, mm ± standard deviation, sample at 0.5 mg/mL, read-out: Inhibition zone (IZ)
Outline: as §1

Pseudomonas aeruginosa = assay: Inhibition zone, agar plate diffusion; assay type: cell-based; settings: Pa, mm ± standard deviation, sample at 0.5 mg/mL, read-out: Inhibition zone (IZ)
Outline: as §1

Escherichia coli = assay: Inhibition zone, agar plate diffusion; assay type: cell-based; settings: Ec, mm ± standard deviation, sample at 0.5 mg/mL, read-out: Inhibition zone (IZ)
Outline: as §1

S. aureus ATCC 33591 = assay: Inhibition zone against MDRB, agar plate diffusion; assay type: cell-based
B. subtilis DNA Gyrase = B. subtilis DNA Gyrase (Bacillus subtilis, UniProt P05652+P05653); assay: DNA gyrase enzyme assay; assay type: biochemical; settings: Mean ± SEM
B. subtilis DNA Gyrase, sequence (P05652 whole entry): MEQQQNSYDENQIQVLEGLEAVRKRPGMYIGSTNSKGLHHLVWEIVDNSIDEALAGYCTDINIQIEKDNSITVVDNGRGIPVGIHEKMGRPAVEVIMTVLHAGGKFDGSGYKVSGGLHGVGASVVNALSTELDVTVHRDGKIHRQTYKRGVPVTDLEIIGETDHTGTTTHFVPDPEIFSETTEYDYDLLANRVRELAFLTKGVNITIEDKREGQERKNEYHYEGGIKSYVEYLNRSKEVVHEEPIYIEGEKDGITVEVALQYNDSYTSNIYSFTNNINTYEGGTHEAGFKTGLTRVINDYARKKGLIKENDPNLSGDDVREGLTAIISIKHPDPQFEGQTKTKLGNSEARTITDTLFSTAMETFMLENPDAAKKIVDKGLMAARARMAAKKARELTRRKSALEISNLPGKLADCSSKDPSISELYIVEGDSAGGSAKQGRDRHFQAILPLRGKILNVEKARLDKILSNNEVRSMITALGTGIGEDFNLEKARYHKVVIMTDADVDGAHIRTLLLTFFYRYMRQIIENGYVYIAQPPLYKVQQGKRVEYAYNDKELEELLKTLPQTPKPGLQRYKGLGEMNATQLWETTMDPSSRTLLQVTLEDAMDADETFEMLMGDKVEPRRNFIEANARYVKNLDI
B. subtilis DNA Gyrase, sequence (P05653 whole entry): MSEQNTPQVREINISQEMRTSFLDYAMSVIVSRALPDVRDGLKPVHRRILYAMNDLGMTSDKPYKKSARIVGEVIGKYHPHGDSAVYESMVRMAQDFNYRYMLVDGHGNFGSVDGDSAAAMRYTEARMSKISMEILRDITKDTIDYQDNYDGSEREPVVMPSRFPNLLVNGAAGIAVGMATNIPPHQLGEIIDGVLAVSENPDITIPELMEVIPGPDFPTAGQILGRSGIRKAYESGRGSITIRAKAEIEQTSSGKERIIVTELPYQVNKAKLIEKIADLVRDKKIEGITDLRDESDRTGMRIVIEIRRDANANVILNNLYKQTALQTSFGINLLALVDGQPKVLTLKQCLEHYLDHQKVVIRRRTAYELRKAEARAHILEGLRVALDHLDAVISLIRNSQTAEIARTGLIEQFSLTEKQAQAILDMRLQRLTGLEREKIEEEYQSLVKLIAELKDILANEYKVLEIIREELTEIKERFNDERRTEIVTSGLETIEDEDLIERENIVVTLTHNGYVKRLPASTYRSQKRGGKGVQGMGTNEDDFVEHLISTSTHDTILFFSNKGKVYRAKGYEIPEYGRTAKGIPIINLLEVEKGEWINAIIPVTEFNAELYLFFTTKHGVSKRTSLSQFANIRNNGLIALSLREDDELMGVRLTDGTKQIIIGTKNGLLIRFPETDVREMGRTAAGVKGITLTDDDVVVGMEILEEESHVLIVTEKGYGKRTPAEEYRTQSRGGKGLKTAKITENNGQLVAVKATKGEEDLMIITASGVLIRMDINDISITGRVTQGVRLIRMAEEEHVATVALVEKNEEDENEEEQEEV

DHFR E. coli = DHFR E. coli (Escherichia coli, UniProt P0ABQ4); assay: Dihydrofolate reductase enzyme assay; assay type: biochemical; settings: for Fold potential relative to Trimethoprim (IC50): DHFR
DHFR E. coli, sequence (P0ABQ4 whole entry): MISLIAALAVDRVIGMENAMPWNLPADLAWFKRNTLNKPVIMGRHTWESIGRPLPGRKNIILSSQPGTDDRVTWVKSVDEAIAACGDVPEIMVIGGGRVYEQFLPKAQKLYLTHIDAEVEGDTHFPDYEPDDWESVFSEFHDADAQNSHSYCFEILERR

SMILES	zone of inhibition at 500 µg/mL (Fusarium oxysporum [1]) [mm]	zone of inhibition at 500 µg/mL (Candida albicans [2]) [mm]	zone of inhibition at 500 µg/mL (Salmonella typhi) [mm]	zone of inhibition at 500 µg/mL (Staphylococcus aureus) [mm]	IC50 (Vero cells (ATCC CCL-81); Chlorocebus sabaeus, Vero) [µM]	IC50 (Vero cells (ATCC CCL-81)) [µM]	IC50 (S. aureus DNA Gyrase) [µM]	MBC [3] [µg/mL]	MIC [3] [µg/mL]	Mean Diameter of Inhibition Zone against MDRB [4] [mm]	IC50 [5] [µM]	Fold relative to doxorubicin (IC50) [5] [fold]	IC50 [6] [µM]	Fold activity in comparison with Amphotericin B (MIC) (Fusarium oxysporum [7]) [fold]	MFC (Fusarium oxysporum [7]) [µg/mL]	MIC (Fusarium oxysporum [7]) [µg/mL]	Fold activity in comparison with Amphotericin B (MIC) (Candida albicans [8]; C. albicans) [fold]	MFC (Candida albicans [8]; C. albicans) [µg/mL]	Mean Diameter of Inhibition Zone against MDRB [9] [mm]	zone of inhibition at 500 µg/mL (Bacillus subtilis) [mm]	also measured
COc1ccc(Nc2n[nH]c(N=Cc3ccc(N4CCCCC4)cc3)c2C(N)=O)cc1 [8a, 3-(p-Methoxyphenylamino)-5-(4-(piperidin-1-yl)benzylideneamino)-1H-pyrazole-4-carboxamide]	20 ± 0.82	24 ± 0.3	23 ± 0.11	26 ± 0.14	> 120	120.5 ± 0.34	7.69 ± 0.23	7.8 (≈ 18.6 µM)	3.9 (≈ 9.32 µM)	26 ± 0.15	1.98 ± 1.55	0.979	2.25 ± 0.85	2	27.8 (≈ 66.4 µM)	15.6 (≈ 37.3 µM)	2	15.6 (≈ 37.3 µM)	27 ± 0.54	27 ± 0.5	MIC (Candida albicans [8]): 7.81 µg/mL (≈ 18.7 µM); zone of inhibition at 500 µg/mL (Enterococcus faecalis): 25 ± 0.33 mm; zone of inhibition at 500 µg/mL (Pseudomonas aeruginosa): 25 ± 0.85 mm; zone of inhibition at 500 µg/mL (Escherichia coli): 23 ± 0.14 mm; Mean Diameter of Inhibition Zone against MDRB (S. aureus ATCC 33591): 24 ± 0.12 mm; IC50 (B. subtilis DNA Gyrase): 15.3 ± 0.5 µM; IC50 (DHFR E. coli): 3.98 ± 0.61 µM; Fold potential relative to Trimethoprim (IC50) (DHFR E. coli): 1.3 fold
COc1ccc(Nc2n[nH]c(N=Cc3cc(OC)c(OC)c(OC)c3)c2C(=O)Nc2ccccc2)cc1 [9b, 3-(p-Methoxyphenylamino)-N-phenyl-5-(3,4,5-trimethoxybenzylideneamino)-1H-pyrazole-4-carboxamide]	17 ± 0.5	19 ± 0.25	23 ± 0.4	21 ± 0.3	> 120	195.9 ± 0.57	10.5 ± 0.55	9.88 (≈ 19.7 µM)	5.2 (≈ 10.4 µM)	24 ± 0.65	2.21 ± 0.36	0.877	1.92 ± 0.49	2	26.6 (≈ 52.9 µM)	15.6 (≈ 31.1 µM)	2	12.5 (≈ 24.9 µM)	24 ± 0.88	25 ± 0.87	MIC (Candida albicans [8]; C. albicans, read-out: MIC): 7.81 µg/mL (≈ 15.6 µM); zone of inhibition at 500 µg/mL (Enterococcus faecalis): 24 ± 0.35 mm; zone of inhibition at 500 µg/mL (Pseudomonas aeruginosa): 21 ± 0.55 mm; zone of inhibition at 500 µg/mL (Escherichia coli): 23 ± 0.2 mm; Mean Diameter of Inhibition Zone against MDRB (S. aureus ATCC 33591): 25 ± 0.12 mm; IC50 (B. subtilis DNA Gyrase): 14.2 ± 0.42 µM; IC50 (DHFR E. coli): 6.48 ± 0.33 µM; Fold potential relative to Trimethoprim (IC50) (DHFR E. coli): 0.80 fold
